Laboratory results published in US20220175798A1, “COMPOSITIONS COMPRISING OXYGENATED CHOLESTEROL SULFATE AND AT LEAST ONE OF POLYALKYLENE GLYCOL, CARBOXYMETHYL CELLULOSE AND POLYOXYLGLYCERIDE” (Durect Corporation, priority 2016, published 2022).

Experiments:
[1] = Syringeability study of 25HC3S suspensions; type: physicochemical
Method: Two lots of 25HC3S sodium salt (Lot #A and Lot #B) were used. Lot #B was delumped through a 20 mesh screen. The drug substance was either used directly or further jet-milled, prior to the preparation of suspensions for the studies. A third lot of 25HC3 S sodium salt (Lot #C) was jet-milled first and then used directly or further passed through a 20 mesh screen prior to the studies. More than 10 vehicles were screened. Four mixing methods were evaluated: manual shaking (Mixing Method 1), manual shaking followed by sonication (Mixing Method 2) and homogenization with a sonic probe (Mixing Method 3) as well as mechanical shaking horizontally in a flat bed shaker (Mixing Method 4). Studies #1 to 13 combined vehicle screening, mixing methods and syringeability evaluation. The effect of drug concentrations on the syringeability was evaluated (Studies #10 and 11). Syringe: 1 mL BD syringe (luer lok tip), reference no: 309628 Needles for syringeability study: listed below Weigh approximately 10 to 100 mg each of 25HC3S into 2 mL vials. Add to each vial, 1 mL of vehicle. A total of 3 mixing methods were used to prepare the suspensions. Mixing Method 1: Each vial was manually shaken for 15 to 45 times. […] The effect of 25HC3S with or without jet milling and the effects of mixing methods as well as drug concentrations on the syringeability were evaluated. […]

[2] = tested on: non-alcoholic steatohepatitis (NASH); assay: Accelerated mouse model of NASH (STZ + HFD), Part I; type: in vivo, C57BL/6J mice; settings: vs vehicle
Method: The subjects for the study were 30 C57BL/6J male mice. Mice were given a 200 ug streptozotocin (STZ) at 2 days after birth and fed high fat diet (HFD) starting at four weeks of age until the remainder of the study (9 weeks of age). This intervention early in their lives induces accelerated progression of non-alcoholic steatohepatitis (NASH) and has been highly characterized.
The Vehicle was a solution of 0.5% (w/v) CMC and 0.05% (v/v) Tween-80 in water. Powdered 25HC3 S was constituted into the vehicle solution to result in drug concentrations of 5 and 10 mg/mL. The suspensions were homogenized for approximately 5 minutes being combined, with 10 second breaks every 30-40 seconds and swirled before dosing to maintain homogeneity. The formulated test article was prepared weekly and kept at room temperature.
Mice were divided into treatment groups (N=10/group) and dosed daily by oral gavage with vehicle, 10 mg/kg or 50 mg/kg 25HC3S starting from Week 5 to Week 9 (28 days treatment).

[3] = Oral pharmacokinetics in HFD-fed Golden Syrian hamsters; type: in vivo
Text: (§1) The subjects for the study were 40 Golden Syrian male hamsters. Two cohorts were provided with either regular diet (RD) or high fat diet (HFD) for 10 weeks. 25HC3 S treatment was initiated at the start of Week 11. Group 1 remained on a regular diet while HFD-fed hamsters were randomly divided into three treatment groups (Groups 2-4; Table 20).
(§2) The Vehicle was a solution of 0.5% (w/v) CMC and 0.05% (v/v) Tween-80 in water. Powdered 25HC3 S was constituted into the vehicle solution to result in drug concentrations of 2.5 and 10 mg/mL. The suspensions were homogenized for approximately 5 minutes being combined, with 10 second breaks every 30-40 seconds and swirled before dosing to maintain homogeneity. The formulated test article was prepared weekly and kept at room temperature.
(§3) Hamsters were treated with 25HC3 S by daily oral gavage for 6 weeks while maintained on RD or HFD. Each hamster received daily doses of 25HC3S or vehicle by oral gavage (N=10/group). There were two dose groups (Groups 3 and 4): 10 and 50 mg/kg, as specified in Table 20, with dose volumes of 4 and 5 mL/kg, respectively.
For pharmacokinetic (PK) analysis, blood was collected following the first 25HC3S dose. Whole blood samples were collected via the jugular vein at pre-dose, 0.5, 2, 4, 8, 12 hours (h) post dose from each hamster; however, the last blood collection may have been collected by terminal cardiac puncture with the animals deeply anesthetized by isoflurane. Blood samples were placed into tubes containing K2EDTA. The blood was gently mixed to assure distribution of the anti-coagulant and the resulting plasma samples underwent analyses to quantify 25HC3S levels.

[4] = tested on: high fat diet (HFD)-fed hamsters; assay: Pharmacodynamic study in HFD-fed Golden Syrian hamsters (serum chemistry, hepatic lipids, histopathology); type: in vivo
Text: as §1, §2, §3
For pharmacodynamic measures of efficacy, clinical chemistry parameters were measured by collection of fasting serum throughout the study to assess the effects of HFD and 25HC3S treatment compared to animals on a RD and given the vehicle control.
Assessments included, but were not limited to, assessment of activity, posture, respiration, emesis, seizure, hydration status, injection site assessment and overall body condition. At the end of the in-life portion of the study (Week 16), all animals were sacrificed and livers collected for biochemical and histopathology analyses.

[5] = 10 mg/kg daily oral gavage 28 days
[6] = HFD-fed hamsters, Group 3, 10 mg/kg daily oral gavage 6 weeks
[7] = HFD-fed hamsters, Group 4, 50 mg/kg daily oral gavage 6 weeks

C[C@H](CCCC(C)(C)O)[C@H]1CC[C@H]2[C@@H]3CC=C4C[C@@H](OS(=O)(=O)[O-])CC[C@]4(C)[C@H]3CC[C@]12C.[Na+] [Formulation 25HC3S, 5-cholesten-3, 25-diol, 3-sulfate]
syringeability ([1]; 25 mg/mL in Vehicle PEG 3350 (without L-Methionine), flat bed shaker 200 rpm up to 45 minutes (Study #13)): good syringeability
syringeability ([1]; final suspension formulation: 25 mg/mL in 3% PEG 3350, 0.3% Tween 80, 0.75% NaCl, 10 mM phosphate buffer pH 7.4): good syringeability
H&E-stained liver sections [2, 5]: No obvious changes
percent area of fibrosis [2, 5]: no significant difference
percent area of fibrosis (Sirius red-positive area) ([2]; 50 mg/kg daily oral gavage 28 days, p=0.0061): significantly decreased
NAS (NAFLD activity score) ([2]; 50 mg/kg daily oral gavage 28 days, p=0.0088): significant reduction
dose-normalized AUC ([3]; 10 mg/kg oral): 195 ng·h/mL/mg
normalized Cmax ([3]; 10 mg/kg oral): 32.2 ng/mL/mg
normalized Cmax ([3]; 50 mg/kg oral): only half of the 10 mg/kg dose
mean half-life ([3]; first oral dose): 3 h
time of mean maximum plasma concentration ([3]; first oral dose, both doses (10 and 50 mg/kg)): 0.5 h
hepatic cholesterol levels ([4]; 10 mg/kg, 6 weeks): no effect
hepatic cholesterol levels ([4]; 50 mg/kg (Group 4), 6 weeks): significantly reduced
reduction in serum cholesterol levels ([4]; 50 mg/kg (Group 4), 6 weeks of treatment (Week 16), not statistically significant): 15-18%
HFD-related liver weight gain ([4]; 6 weeks of treatment): no statistically significant effect
HDL and LDL cholesterol ([4]; 6 weeks of treatment, HFD-fed hamsters): reduced both HDL and LDL cholesterol in a dose-dependent fashion
ALT and AST levels ([4]; 6 weeks of treatment, compared to vehicle): reduced both ALT and AST levels
incidence of “normal-appearing” livers at gross necropsy ([4]; Group 4 (50 mg/kg)): 22%
Hepatic Free Fatty Acids [4, 6]: 7.3 (±0.6) Meg/mg protein
Hepatic Total Cholesterol [4, 6]: 155.5 (±37.9) μg/mg protein
Hepatic Triglyceride [4, 6]: 66.1 (±23.3) μg/mg protein
Hepatic Free Fatty Acids [4, 7]: 6.6 (±1.4) Meg/mg protein
Hepatic Triglyceride [4, 7]: 46.4 (±15.6) μg/mg protein
Hepatic Total Cholesterol ([4]; HFD-fed hamsters, Group 4, 50 mg/kg daily oral gavage 6 weeks, p < 0.05 compared to Group 2): 75.2 (±45.7) μg/mg protein
clinical signs ([4]; PO daily for 6 weeks, hamsters): did not result in any notable clinical signs
liver histopathology (H&E and Oil Red O) ([4]; dose-dependent, compared to HFD-fed control (Group 2)): considerably less microvesicular changes, reduced Oil Red 0 staining, and milder inflammation
serum triglyceride levels ([4]; treated groups vs vehicle across 6 weeks, not statistically significant): trending higher
hepatic triglyceride levels ([4]; with increasing dosage, 6 weeks, did not reach statistical significance): Reduced
